Data reported in patent US7902254B1, “Method for treating conditions mediated by PPAR using macelignan” (Newtree Co., Ltd., priority 2005, dated 2011).

How the values were obtained:
[1] = system: 3T3-L1 mouse pre-adipocytes; assay: Stimulation of adipocyte differentiation; type: cell-based; conditions: 10 μM, 3T3-L1, vs 0.01% DMSO control and 10 μM troglitazone
Description: 3T3-L1 mouse pre-adipocytes cultured in a DMEM medium containing 10% FBS were pipetted into a multi-well plate in a cell count of 1×10^6 cells per well, and then further cultured for 5 hours. To the cultured cells, 10 μM of macelignan was added and then left for 24 hours. Adipocyte differentiation was induced by substituting the medium of the cultured cells with MDI (0.5 mM 3-isobutyl-1-methylxanthine, 0.5 uM dexamethasone, 10 ug/ml insulin) medium (Am. J. Physiol. Cell Physiol., 280: C807-C813, 2001). The shape of the cells was observed by an optical microscope two day after the substitution of MDI medium.

[2] = system: obesity/diabetes mice (db/db mice); assay: Anti-diabetes effect in obesity/diabetes mouse model; type: in vivo; conditions: for OGTT blood sugar: 12th day; for blood sugar level: 14 days; for blood sugar level / Adiponectin concentration in blood / Insulin concentration in blood: db/db mice; for Adiponectin concentration in blood / Insulin concentration in blood: 14th day
Excerpt: A mouse (db/db mouse; The Jackson Laboratory, USA) used in the present invention as an obesity/diabetes model is deficient in leptin genes and cannot control its appetite, and thus takes an excessive amount of food continuously. […] Thus, it can be a typical model of obesity and metabolic diseases. Additionally, it has a higher blood sugar level and can be a typical model of non-insulin-dependent diabetes mellitus. To investigate the effect of preventing and treating diabetes of macelignan, seven mice of 10 week-aged obesity/diabetes mice (db/db mice) were used per test group. To the test groups, macelignan suspended in 0.25% carboxymethyl cellulose was orally administered with the dose of 5 mg/kg (body weight), 10 mg/kg (body weight) and 25 mg/kg (body weight), once per day at a predetermined time, for 14 days. As a control, 0.25% carboxymethyl cellulose was orally administered alone to normal mice in the same dose as administered to the test group. As another control, 0.25% carboxymethyl cellulose was orally administered alone to obesity/diabetes mice in the same dose as administered to the test group. As still another control, 10 mg/kg (body weight) of troglitazone was orally administered. Blood sugar levels of the obesity/diabetes mice were determined from six days before the administration, once per three days. On the 12th day after the oral administration, the test group and the controls were subjected to the Oral Glucose Tolerance Test (OGTT). For this test, obesity/diabetes mice in the test group and the controls were fasted for at least 18 hours, glucose was orally administered to the mice in a dose of 3 g/kg (body weight), and then variations in the blood sugar were measured at 0 minutes, 30 minutes, 60 minutes and 120 minutes after the glucose administration. Additionally, on the 14th day of the oral administration, the final blood sugar level, insulin content in blood (mouse insulin ELISA Kit, Linco Research, o. EZRMI-BK, USA) and adiponectin content in blood (Adiponectin Quantikine ELISA Kit, R&D systems, No. MRP300, USA) were analyzed.

[3] = system: target genes of PPARα (CD36, ACO, CPT-1); assay: Expression of target genes of PPARα in liver tissue of obesity/diabetes mouse model; type: in vivo; conditions: 5, 10 and 25 mg/kg oral, 14 days, db/db mice, p<0.05 vs control
Description: Liver tissue was removed from the test groups and the controls treated by oral administration in Examples 5˜8. The liver tissue was homogenized in liquid nitrogen and the total RNA was isolated from the tissues by using TRIZOL (Invitrogen, USA). The total RNA isolated as described above was determined and cDNA was synthesized by using reverse transcriptase at 42° C. for 20 minutes with same amount of RNA. The cDNA was subjected to RT-PCR by repeating 30 cycles of 95° C./1 minute, 56° C./30 seconds and 72° C./2 minutes with the following primers and Taq polymerase: primers for CD36 amplification (SEQ ID NO: 5 and SEQ ID NO: 6), primers for ACO amplification (SEQ ID NO: 11 and SEQ ID NO: 12), and primers for CPT-1 amplification (SEQ ID NO: 7 and SEQ ID NO: 8). Expression of the genes was determined by real-time PCR.

[4] = system: obesity/diabetes mice (db/db mice); assay: Effect upon fatty liver in obesity/diabetes mouse model; type: in vivo; conditions: 25 mg/kg oral, 14 days
Description: To investigate effects of macelignan upon the prevention and treatment of fatty liver, seven mice of 10 week-aged obesity/diabetes mice (db/db mice) were used per test group. To the test groups, macelignan suspended in 0.25% carboxymethyl cellulose was orally administered in an administration dose of 5 mg/kg (body weight), 10 mg/kg (body weight) and 25 mg/kg (body weight), once per day at a predetermined time, for 14 days in all. As a control, 0.25% carboxymethyl cellulose was orally administered alone to normal mice in the same dose as administered to the test group. As another control, 0.25% carboxymethyl cellulose was orally administered alone to obesity/diabetes mice in the same dose as administered to the test group. As still another control, 10 mg/kg (body weight) of troglitazone was orally administered. Fourteen days after the oral administration, the liver tissue was isolated and crushed to extract the total lipid and fat contents, and then the triglyceride content accumulated in the liver tissue was measured.

Oral toxicity test = conditions: rat, in vivo; oral administration, rats; read-out: lethal dose 50% (LD50)

## COc1cc(C[C@H](C)[C@H](C)Cc2ccc3c(c2)OCO3)ccc1O (single isomer, unassigned) [macelignan]
[1]
  adipocyte differentiation: adipocyte differentiation was stimulated
[2]; 0 min. after glucose 3 g/kg, 5 mg/kg oral
  OGTT blood sugar: 379.14 ± 26.23 mg/dL
[2]; 0 min. after glucose 3 g/kg, 10 mg/kg oral
  OGTT blood sugar: 313.86 ± 51.40 mg/dL
[2]; 0 min. after glucose 3 g/kg, 25 mg/kg oral
  OGTT blood sugar: 319.14 ± 35.25 mg/dL
[2]; 5 mg/kg oral once per day
  blood sugar level: 552.84 ± 47.95 mg/dL
[2]; 5 mg/kg oral
  Adiponectin concentration in blood: 5111.14 ± 925.88 ng/mL
  Insulin concentration in blood: 26.33 ± 10.78 ng/mL
[2]; 10 mg/kg oral once per day
  blood sugar level: 501.03 ± 43.67 mg/dL
[2]; 10 mg/kg oral
  Adiponectin concentration in blood: 6882.86 ± 250.05 ng/mL
  Insulin concentration in blood: 16.66 ± 7.03 ng/mL
[2]; 25 mg/kg oral once per day
  blood sugar level: 412.74 ± 31.15 mg/dL
[2]; 25 mg/kg oral
  Adiponectin concentration in blood: 7864.00 ± 808.21 ng/mL
  Insulin concentration in blood: 8.51 ± 3.67 ng/mL
[2]; 30 mins. after glucose 3 g/kg, 5 mg/kg oral
  OGTT blood sugar: 636.85 ± 63.29 mg/dL
[2]; 30 mins. after glucose 3 g/kg, 10 mg/kg oral
  OGTT blood sugar: 670.14 ± 94.20 mg/dL
[2]; 30 mins. after glucose 3 g/kg, 25 mg/kg oral
  OGTT blood sugar: 580.00 ± 101.37 mg/dL
[2]; 60 mins. after glucose 3 g/kg, 5 mg/kg oral
  OGTT blood sugar: 613.38 ± 24.36 mg/dL
[2]; 60 mins. after glucose 3 g/kg, 10 mg/kg oral
  OGTT blood sugar: 593.11 ± 27.15 mg/dL
[2]; 60 mins. after glucose 3 g/kg, 25 mg/kg oral
  OGTT blood sugar: 509.70 ± 27.71 mg/dL
[2]; 120 mins. after glucose 3 g/kg, 5 mg/kg oral
  OGTT blood sugar: 564.21 ± 29.86 mg/dL
[2]; 120 mins. after glucose 3 g/kg, 10 mg/kg oral
  OGTT blood sugar: 529.46 ± 17.55 mg/dL
[2]; 120 mins. after glucose 3 g/kg, 25 mg/kg oral
  OGTT blood sugar: 431.21 ± 59.18 mg/dL
[3]
  mRNA expression of CD36, ACO and CPT-1 in liver tissue: significantly increased
[4]
  triglyceride content in the liver tissue: 6.30 ± 11.59 mg/g
Oral toxicity test
  LD50: ≥ 2000 mg/kg
